Experimental data: US10689343B2, “Inhibitors of tryptophan 2,3-dioxygenase” (NETHERLANDS TRANSLATIONAL RESEARCH CENTER B.V., priority 2016, dated 2020)
Several values for one entry are separate records, joined by “and”; a condition that tells them apart may be missing. Equal entries are not always repeated. Where two headings read alike, the source gives them in different places.

How the values were obtained:
[1] = biological target: T1, CYP3A4 (Homo sapiens, UniProt P08684)
[2] = biological target: T2, CYP2D6 (Homo sapiens, UniProt P10635)
[3] = biological target: T3, TDO expressed in mouse tumor cells (Mus musculus, UniProt P48776); conditions: immunocompetent mice; cited from earlier work
T3 construct: host or cells: mouse tumor cells

[4] = mice treated with LM10; cited from earlier work
[5] = biological target: T4, TDO in SW48 colorectal carcinoma cells (Homo sapiens, UniProt P48775); assay: Cell-based assay for TDO in SW48 colorectal carcinoma cells (NFK GreenScreen); conditions: 18 hours with L-tryptophan, read-out: IC50 on TDO in cells
T4 construct: Endogenous expression of TDO has been determined in a variety of cancer cell lines; host or cells: SW48 colorectal carcinoma cells

[6] = biological target: T1, CYP3A4; assay: P450-Glo CYP3A4 luciferin isopropylacetal (Luc-IP) assay
[7] = biological target: T2, CYP2D6; assay: P450-Glo CYP2D6 Luc-IP assay
[8] = biological target: T5, Recombinant TDO (Homo sapiens, UniProt P48775); assay: Biochemical assay for TDO (NFK GreenScreen); conditions: 50 nM TDO, 200 μM L-tryptophan
T5 construct: Recombinant TDO (Seegers, N., et al.) and all other assay components were diluted in TDO reaction buffer
Procedure, shortened: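 Recombinant human TDO (50 nM) preincubated with compound 60 min at room temperature in 100 mM NaH2PO4 pH 7.0, 0.02% Tween-20, with ascorbic acid. Reaction then run 15 min with 200 μM L-tryptophan (final), 0.3% DMSO. NFK product detected by NFK Green fluorescence after 3 h at 37° C; IC50 derived.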

T4 sequence (P48775 whole entry): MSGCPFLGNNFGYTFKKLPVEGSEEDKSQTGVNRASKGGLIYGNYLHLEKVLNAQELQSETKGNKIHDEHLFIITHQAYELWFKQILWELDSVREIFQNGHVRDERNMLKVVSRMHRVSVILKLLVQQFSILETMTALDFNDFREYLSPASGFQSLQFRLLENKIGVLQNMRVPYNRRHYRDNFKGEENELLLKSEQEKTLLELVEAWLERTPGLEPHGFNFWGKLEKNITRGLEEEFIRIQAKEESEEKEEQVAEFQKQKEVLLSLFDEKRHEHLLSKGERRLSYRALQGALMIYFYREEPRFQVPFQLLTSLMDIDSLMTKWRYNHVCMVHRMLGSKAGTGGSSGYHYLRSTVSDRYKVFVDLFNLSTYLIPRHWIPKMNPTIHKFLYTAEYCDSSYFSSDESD
T5 sequence (P48775 whole entry): as above
T2 sequence (P10635 whole entry): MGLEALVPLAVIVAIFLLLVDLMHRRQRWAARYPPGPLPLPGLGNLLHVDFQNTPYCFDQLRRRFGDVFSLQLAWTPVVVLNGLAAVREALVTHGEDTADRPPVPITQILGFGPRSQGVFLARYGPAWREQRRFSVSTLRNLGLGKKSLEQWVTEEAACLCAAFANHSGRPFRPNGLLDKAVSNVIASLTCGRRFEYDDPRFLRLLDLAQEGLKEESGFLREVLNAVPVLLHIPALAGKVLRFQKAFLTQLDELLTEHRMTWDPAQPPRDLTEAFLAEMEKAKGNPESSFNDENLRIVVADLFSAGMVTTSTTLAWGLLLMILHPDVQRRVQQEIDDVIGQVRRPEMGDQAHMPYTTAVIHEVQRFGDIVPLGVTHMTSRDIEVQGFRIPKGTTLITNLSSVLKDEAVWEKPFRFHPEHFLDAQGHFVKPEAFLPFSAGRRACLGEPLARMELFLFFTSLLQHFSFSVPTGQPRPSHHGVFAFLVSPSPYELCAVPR
T1 sequence (P08684 whole entry): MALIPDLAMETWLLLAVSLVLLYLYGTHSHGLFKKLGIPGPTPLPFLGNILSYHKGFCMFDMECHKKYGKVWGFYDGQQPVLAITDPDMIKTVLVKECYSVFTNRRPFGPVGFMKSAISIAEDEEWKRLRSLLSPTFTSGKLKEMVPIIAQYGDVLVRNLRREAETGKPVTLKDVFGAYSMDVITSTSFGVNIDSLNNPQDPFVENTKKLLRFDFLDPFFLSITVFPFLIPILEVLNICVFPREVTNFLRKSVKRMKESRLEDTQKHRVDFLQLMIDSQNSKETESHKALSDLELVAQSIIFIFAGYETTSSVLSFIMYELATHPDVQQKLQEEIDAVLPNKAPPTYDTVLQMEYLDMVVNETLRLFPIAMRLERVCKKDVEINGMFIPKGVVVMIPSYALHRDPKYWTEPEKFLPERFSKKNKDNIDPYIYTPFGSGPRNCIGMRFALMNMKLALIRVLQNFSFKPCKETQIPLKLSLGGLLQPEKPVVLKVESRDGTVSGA
T3 sequence (P48776 whole entry): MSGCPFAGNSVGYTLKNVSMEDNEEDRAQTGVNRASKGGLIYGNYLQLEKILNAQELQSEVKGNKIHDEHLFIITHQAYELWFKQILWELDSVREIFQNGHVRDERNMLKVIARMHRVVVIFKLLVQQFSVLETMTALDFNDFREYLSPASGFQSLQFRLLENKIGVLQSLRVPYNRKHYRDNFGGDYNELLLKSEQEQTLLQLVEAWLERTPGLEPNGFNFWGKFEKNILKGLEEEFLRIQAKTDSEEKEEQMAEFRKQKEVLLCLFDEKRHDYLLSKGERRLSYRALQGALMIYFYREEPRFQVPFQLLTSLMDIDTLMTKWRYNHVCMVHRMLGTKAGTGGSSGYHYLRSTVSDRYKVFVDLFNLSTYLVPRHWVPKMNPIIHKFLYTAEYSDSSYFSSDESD

Row | IC50 [1] [nM] | IC50 [2] [nM] | IC50 [5] | IC50 [6] [nM] | IC50 [7] [nM] | IC50 [8] [nM] | Compound | Effect on TDO-mediated prevention of tumor cell rejection [3] | Signs of toxicity in the liver or any other organs [4]
1 | > 10000 | > 10000 | – | – | – | – | N-(3,3-difluorocyclobutyl)-4-(6-fluoro-1H-indol-3-yl)benzamide [Example 114] | – | –
2 | 5000 to 10000 | > 10000 | – | – | – | – | N-(2-diethylaminoethyl)-4-(6-fluoro-1H-indol-3-yl)benzamide [Example 81] | – | –
3 | – | – | ≤ 500 nM and 200 to 500 nM | 5000 to 10000 | 5000 to 10000 | 1000 to 5000 | O=C(N[C@@H](CO)c1ccccc1)c1ccc(-c2c[nH]c3cc(F)ccc23)cc1 [Example 16, 4-(6-fluoro-1H-indol-3-yl)-N-[(1R)-2-hydroxy-1-phenyl-ethyl]benzamide] | – | –
4 | – | – | ≤ 200 nM | > 10000 | > 10000 | < 1000 | O=C(NCCN1CCCC1)c1ccc(-c2c[nH]c3cc(F)ccc23)cc1 [Example 77, 4-(6-Fluoro-1H-indol-3-yl)-N-(2-pyrrolidin-1-ylethyl)benzamide] | – | –
5 | – | – | ≤ 200 nM | > 10000 | > 10000 | < 1000 | CN(C)CCCNC(=O)c1ccc(-c2c[nH]c3cc(F)ccc23)cc1Cl [Example 52, 2-Chloro-N-[3-(dimethylamino)propyl]-4-(6-fluoro-1H-indol-3-yl)benzamide] | – | –
6 | – | – | ≤ 500 nM and 200 to 500 nM | > 10000 | > 10000 | < 1000 | CC(CO)(CO)NC(=O)c1ccc(-c2c[nH]c3cc(F)ccc23)cc1 [Example 48, 4-(6-Fluoro-1H-indol-3-yl)-N-[2-hydroxy-1-(hydroxymethyl)-1-methyl-ethyl]benzamide] | – | –
7 | – | – | ≤ 500 nM and 200 to 500 nM | > 10000 | > 10000 | < 1000 | O=C(NC1[C@H]2COC[C@@H]12)c1ccc(-c2c[nH]c3cc(F)ccc23)cc1 (stereo partly drawn) [Example 64, 4-(6-Fluoro-1H-indol-3-yl)-N-[(1R,5S)-3-oxabicyclo[3.1.0]hexan-6-yl]benzamide] | – | –
8 | – | – | ≤ 200 nM | 5000 to 10000 | > 10000 | < 1000 | CC(N)CNC(=O)c1ccc(-c2c[nH]c3cc(F)ccc23)cc1Cl (stereo not drawn) [Example 71, N-(2-aminopropyl)-2-chloro-4-(6-fluoro-1H-indol-3-yl)benzamide] | – | –
9 | – | – | ≤ 500 nM and 200 to 500 nM | > 10000 | > 10000 | < 1000 | CSCC(=O)Nc1ccc(-c2c[nH]c3cc(F)ccc23)cc1 [Example 31, N-[4-(6-fluoro-1H-indol-3-yl)phenyl]-2-methylsulfanyl-acetamide] | – | –
10 | > 10000 | > 10000 | – | – | – | – | N-[3-(dimethylamino)propyl]-4-(6-fluoro-1H-indol-3-yl)benzamide [Example 8] | – | –
11 | – | – | ≤ 500 nM and 200 to 500 nM | > 10000 | > 10000 | < 1000 | O=C(NCC(F)(F)F)c1ccc(-c2c[nH]c3cc(F)ccc23)cc1Cl [Example 53, 2-Chloro-4-(6-fluoro-1H-indol-3-yl)-N-(2,2,2-trifluoroethyl)benzamide] | – | –
12 | – | – | ≤ 500 nM and 200 to 500 nM | 5000 to 10000 | 5000 to 10000 | < 1000 | C[C@H](CO)NC(=O)c1ccc(-c2c[nH]c3cc(F)ccc23)c(F)c1 [Example 117, 3-Fluoro-4-(6-fluoro-1H-indol-3-yl)-N-[(1R)-2-hydroxy-1-methyl-ethyl]benzamide] | – | –
13 | – | – | ≤ 500 nM and 200 to 500 nM | > 10000 | > 10000 | < 1000 | C[C@H](CO)NC(=O)c1c(F)cc(-c2c[nH]c3cc(F)ccc23)cc1F [Example 56, 2,6-Difluoro-4-(6-fluoro-1H-indol-3-yl)-N-[(1R)-2-hydroxy-1-methyl-ethyl]benzamide] | – | –
14 | – | – | ≤ 200 nM | > 10000 | > 10000 | < 1000 | CN1CCCC(NC(=O)c2ccc(-c3c[nH]c4cc(F)ccc34)cc2)C1 (stereo not drawn) [Example 25, 4-(6-Fluoro-1H-indol-3-yl)-N-(1-methyl-3-piperidyl)benzamide] | – | –

More lines, now with the values behind:

Row | Compound | IC50 [1] [nM] | IC50 [2] [nM] | IC50 [5] | IC50 [6] [nM] | IC50 [7] [nM] | IC50 [8] [nM] | Effect on TDO-mediated prevention of tumor cell rejection [3] | Signs of toxicity in the liver or any other organs [4]
15 | Fc1ccc2c(/C=C/c3nn[nH]n3)c[nH]c2c1 [LM10] | – | – | – | – | – | – | reverted | did not show any signs of toxicity
16 | Cc1cc(C(=O)NCCCN(C)C)ccc1-c1c[nH]c2cc(F)ccc12 [Example 127, N-[3-(dimethylamino)propyl]-4-(6-fluoro-1H-indol-3-yl)-3-methyl-benzamide] | – | – | ≤ 500 nM and 200 to 500 nM | > 10000 | > 10000 | < 1000 | – | –
17 | O=C(N[C@@H]1CN2CCC1CC2)c1ccc(-c2c[nH]c3cc(F)ccc23)cc1 [Example 20, 4-(6-Fluoro-1H-indol-3-yl)-N-[(3S)-quinuclidin-3-yl]benzamide] | – | – | ≤ 200 nM | > 10000 | > 10000 | < 1000 | – | –
18 | O=C(NC[C@H]1CCCNC1)c1ccc(-c2c[nH]c3cc(F)ccc23)cc1 [Example 94, 4-(6-Fluoro-1H-indol-3-yl)-N-[[(3S)-3-piperidyl]methyl]benzamide] | – | – | ≤ 500 nM and 200 to 500 nM | 5000 to 10000 | > 10000 | < 1000 | – | –
19 | O=C(N[C@H]1CN2CCC1CC2)c1ccc(-c2c[nH]c3cc(F)ccc23)cc1 [Example 133, 4-(6-Fluoro-1H-indol-3-yl)-N-[(3R)-quinuclidin-3-yl]benzamide] | – | – | ≤ 200 nM | > 10000 | > 10000 | < 1000 | – | –
20 | CS(=O)(=O)CC(=O)Nc1ccc(-c2c[nH]c3cc(F)ccc23)cc1 [Example 80, N-[4-(6-fluoro-1H-indol-3-yl)phenyl]-2-methylsulfonyl-acetamide] | – | – | ≤ 200 nM | > 10000 | > 10000 | 1000 to 5000 | – | –
21 | N-cyclopropyl-4-(6-fluoro-1H-indol-3-yl)benzamide [Example 86] | > 10000 | > 10000 | – | – | – | – | – | –
22 | O=C(N[C@@H]1CCNC[C@@H]1F)c1ccc(-c2c[nH]c3cc(F)ccc23)cc1 [Example 74, 4-(6-Fluoro-1H-indol-3-yl)-N-[(3S,4R)-3-fluoro-4-piperidyl]benzamide] | – | – | ≤ 200 nM | 5000 to 10000 | > 10000 | < 1000 | – | –
23 | O=C(NC1CCCNCC1)c1ccc(-c2c[nH]c3cc(F)ccc23)cc1 (stereo not drawn) [Example 83, N-(azepan-4-yl)-4-(6-fluoro-1H-indol-3-yl)benzamide] | – | – | ≤ 200 nM | > 10000 | > 10000 | < 1000 | – | –
24 | O=C(Nc1ccc(-c2c[nH]c3cc(F)ccc23)cc1)C1[C@H]2COC[C@@H]12 (stereo partly drawn) [Example 100, (1R,5S)—N-[4-(6-fluoro-1H-indol-3-yl)phenyl]-3-oxabicyclo[3.1.0]hexane-6-carboxamide] | – | – | ≤ 500 nM and 200 to 500 nM | > 10000 | > 10000 | 1000 to 5000 | – | –
25 | O=C(Nc1ccc(-c2c[nH]c3cc(F)ccc23)cc1)[C@@H]1CCCNC1 [Example 131, (3R)—N-[4-(6-fluoro-1H-indol-3-yl)phenyl]piperidine-3-carboxamide] | – | – | ≤ 500 nM and 200 to 500 nM | > 10000 | > 10000 | < 1000 | – | –
